In US20210346359A1, “Use of CFTR Modulators For Treating Cerebrovascular Conditions” (Qanatpharma AG, priority 2018, published 2021):
“Also recorded” adds a separate entry of the source.

Key:
[1] = tested on: posterior cerebral arteries; assay: Phenylephrine responses of isolated posterior cerebral arteries; format: in vivo, mouse
Description: Isolation and functional assessment of resistance arteries: Mouse olfactory (a first branch of the anterior cerebral artery) and PCAs were carefully dissected, cannulated onto micropipettes, stretched to their in vivo lengths and pressurized to 45 mmHg, as previously described (3,6); mouse skeletal muscle resistance arteries were dissected from the cremaster muscle, cannulated and pressurized to 60 mmHg. All functional experiments were conducted in 3-morpholinopropanesulfonic acid (MOPS) buffered saline at 37° C. with no perfusion. Vasomotor responses to phenylephrine (5 μmol/L for posterior cerebral arteries, 10 μmol/L for cremaster skeletal muscle arteries) provided an assessment of vessel viability at the beginning and end of each experiment. Arteries failing to show ≥25% constriction to phenylephrine were excluded.
Myogenic tone was calculated as the percent constriction in relation to the maximal diameter at each respective transmural pressure: tone (% of diamax)=[(diamax−diaactive)/diamax]×100, where diaactive is the vessel diameter in MOPS containing Ca^2+ and diamax is the diameter in Ca^2+-free MOPS. Analyses of vasomotor responses to phenylephrine used the same calculation, only in this case, diaactive represents the vessel diameter at steady state following application of the given agent and diamax represents the maximal diameter measured under Ca^2+-free conditions.

mice with heart failure [2] = assay: MRI T2 mapping of cerebral edema in heart failure mice; format: in vivo, mouse; conditions: HF mice, 3 mg/kg daily for 2 days
Description: Magnetic resonance imaging-based edema measurement: Edema was assessed by quantitative T2 mapping (12), using a 7 Tesla micro-MRI system (Bruker Corporation Biospec 70/30 USR; Ettlingen, Germany). The T2 mapping acquisition generated quantitative T2 maps in 9 contiguous 2D axial slices, with 1 mm thickness, covering the volume from the fore-brain through to the hind-brain. T2 maps were generated from T2-weighted images at echo times from 12 to 384 ms, using in-line Bruker software, via linear regression of the logarithmically-transformed signal magnitudes and the echo times on a per voxel basis. The T2 values were extracted using MIPAV software, using manually drawn regions-of-interest placed within the fore-, middle- and hind-brain T2 maps.

mice with heart failure [3] = assay: Golgi stain / Sholl analysis of cortical neuron dendrite morphology in heart failure mice; format: in vivo, mouse; conditions: 3 mg/kg i.p. daily for 2 weeks
Text: Brains were perfused with heparinized saline via transcardiac perfusion, isolated and processed stained utilizing a commercially available Rapid GolgiStain kit (FD NeuroTechnologies Inc.; Columbia, USA). The kit uses a modified Golgi-Cox staining procedure originally described by Glaser and Van der Loos (24). Briefly, isolated brain tissue samples were immersed in a kit-provided solution containing mercuric chloride, potassium dichromate and potassium chromate in the dark for 8 days; this was followed by a 6-day incubation with tissue protection solution. The brain samples were then washed, embedded in 4% low gelling agarose, sectioned in the coronal plane (150 μm thickness; Campden Instruments 7000 smz-2 vibrating microtome) and mounted onto gelatin-coated glass slides. The staining procedure was then completed using kit-provided developing/staining reagents, according to the manufacturer's instructions. […] We analyzed both the basal and apical dendrite networks of pyramidal cortical neurons from the frontal cortex, using a quantitative approach originally described by Shall (25). We utilized Image J software coupled with the semi-automated Simple Neurite Tracer plugin (both freely available from the NIH) to identify and digitally isolate the dendrite networks of a single cortical neuron from a 200× magnification hyperstack image. The center of the soma was marked with the pointer tool; dendrite morphology was then characterized by Sholl analysis (see https://imagej.net/Sholl_Analysis, version 3.7.4), using 5 μm intervals to a maximal radius of 300 μm. This analysis characterizes dendrite morphology in terms of dendrite intersections (i.e., branching) and dendrite length. For each treatment group, 2-4 neurons per mouse from 4 mice were analyzed under blinded conditions. To assess dendritic spine density (i.e., the number of small protrusions found on dendrites), we imaged 3rd branch order dendritic segments at 100× magnification. Spine density was measured as the number of spines per segment for the following segments: 20-50 μm from soma; 30-60 μm from soma; 50-80 μm from soma; and 60-100 μm from soma). This “sliding measurement” approach permits an assessment of how spine density changes over the length of dendritic branch. For each treatment group, spine density was measured in 2-4 pyramidal cortical neurons (2-4 third order branches per neuron) per mouse from 3-4 mice per group, under blinded conditions.

wild-type CFTR = wild-type CFTR (Homo sapiens, UniProt P13569); conditions: demonstrated earlier (15); cited from earlier work
Chain of wild-type CFTR (P13569 whole entry, species assumed): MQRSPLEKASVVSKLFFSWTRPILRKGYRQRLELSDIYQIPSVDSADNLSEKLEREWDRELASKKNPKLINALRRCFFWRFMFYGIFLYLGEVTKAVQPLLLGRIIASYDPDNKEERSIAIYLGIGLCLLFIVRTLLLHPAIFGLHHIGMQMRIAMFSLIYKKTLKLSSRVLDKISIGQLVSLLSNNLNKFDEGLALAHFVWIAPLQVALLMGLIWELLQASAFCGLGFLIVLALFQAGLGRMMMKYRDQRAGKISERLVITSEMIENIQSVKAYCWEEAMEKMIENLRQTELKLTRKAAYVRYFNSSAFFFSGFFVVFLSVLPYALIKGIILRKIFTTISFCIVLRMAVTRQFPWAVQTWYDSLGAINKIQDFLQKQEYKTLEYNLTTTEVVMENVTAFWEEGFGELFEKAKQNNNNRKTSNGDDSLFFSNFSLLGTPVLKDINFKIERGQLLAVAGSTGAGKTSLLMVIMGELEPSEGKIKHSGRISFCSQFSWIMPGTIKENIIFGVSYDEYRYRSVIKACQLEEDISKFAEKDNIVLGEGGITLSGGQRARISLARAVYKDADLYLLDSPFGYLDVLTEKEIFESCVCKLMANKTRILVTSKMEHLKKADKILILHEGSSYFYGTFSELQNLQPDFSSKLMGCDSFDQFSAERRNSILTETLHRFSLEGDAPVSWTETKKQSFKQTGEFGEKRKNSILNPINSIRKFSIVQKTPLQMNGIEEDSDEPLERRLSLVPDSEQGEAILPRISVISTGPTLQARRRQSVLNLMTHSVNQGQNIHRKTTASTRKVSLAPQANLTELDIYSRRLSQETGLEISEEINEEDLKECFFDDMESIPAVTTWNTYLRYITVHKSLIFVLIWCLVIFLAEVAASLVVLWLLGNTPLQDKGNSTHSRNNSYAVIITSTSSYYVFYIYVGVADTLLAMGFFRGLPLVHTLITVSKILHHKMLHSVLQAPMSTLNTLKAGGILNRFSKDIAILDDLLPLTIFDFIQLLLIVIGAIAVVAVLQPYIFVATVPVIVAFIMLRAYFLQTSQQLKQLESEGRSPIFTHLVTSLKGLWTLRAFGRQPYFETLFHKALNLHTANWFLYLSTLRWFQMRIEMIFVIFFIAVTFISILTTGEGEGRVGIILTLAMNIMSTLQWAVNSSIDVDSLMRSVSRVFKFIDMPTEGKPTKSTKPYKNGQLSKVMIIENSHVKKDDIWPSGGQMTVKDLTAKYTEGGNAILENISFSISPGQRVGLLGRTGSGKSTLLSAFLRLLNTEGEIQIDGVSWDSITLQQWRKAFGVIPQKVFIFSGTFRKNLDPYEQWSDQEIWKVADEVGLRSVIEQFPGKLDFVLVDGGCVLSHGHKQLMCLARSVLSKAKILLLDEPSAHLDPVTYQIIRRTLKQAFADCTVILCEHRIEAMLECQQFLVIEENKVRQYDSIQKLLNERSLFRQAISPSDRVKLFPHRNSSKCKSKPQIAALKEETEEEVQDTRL

O=C(Nc1ncc(C(c2ccccc2Cl)N2CCC(O)C2)s1)C1(c2ccc3c(c2)OCO3)CC1 (stereo not drawn) [C18, 1-(benzo[d][1,3]dioxol-5-yl)-N-(5-((2-chlorophenyl)(3-hydroxypyrrolidin-1-yl)methyl)thiazol-2-yl)cyclopropanecarboxamide]
phenylephrine dose-response relationship ([1]; posterior cerebral arteries from CFTR knockout mice, 3 mg/kg i.p. daily for 2 days, 3 mg/kg): not affected; also recorded: does not alter
phenylephrine dose-response relationship normalized to basal tone, HF vs HF+C18 ([1]; posterior cerebral arteries from HF mice, 3 mg/kg i.p. daily for 2 days, 3 mg/kg): curves overlap; also recorded: not significantly different
phenylephrine dose-response relationship (tone), HF vs HF+C18 ([1]; posterior cerebral arteries from HF mice, 3 mg/kg i.p. daily for 2 days, not normalized, 3 mg/kg): significant difference
phenylephrine responses ([1]; posterior cerebral arteries from sham-operated mice, 3 mg/kg i.p. daily for 2 days, 3 mg/kg): does not affect; also recorded: does not alter
log EC50 of phenylephrine response ([1]; posterior cerebral arteries, HF+C18 group, log scale): −5.94±0.21
cerebral edema (T2 relaxation times) (mice with heart failure [2]): neither HF nor C18 treatment in the context of HF induces evident edema; also recorded: does not induce edema; also recorded: Neither HF nor C18 treatment in HF mice induces an alteration
mean apical dendrite length (maximum radius), HF-induced reduction (mice with heart failure [3]): normalized
mean basal dendrite length (maximum radius), HF-induced reduction (mice with heart failure [3]): normalized
apical dendrite branching morphology (Sholl analysis) (mice with heart failure [3]; HF mice, sham vs HF vs HF+C18): No differences
basal dendrite branching morphology (Sholl analysis) (mice with heart failure [3]; HF mice, sham vs HF vs HF+C18): no differences
mean apical dendrite spine density at 60-100 μm from soma, group difference (mice with heart failure [3]; HF mice, sham vs HF vs HF+C18): does not reach statistical significance
interaction with wild-type CFTR / CFTR expression at the plasma membrane (wild-type CFTR): directly interacts with and stabilizes wild-type CFTR
